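Step 1: Grow cells in 96-well plates. Step 2: Expose to compound for 48 hours at 5 concentrations. Step 3: Interpolate endpoints linearly; if unreached, use highest concentration. Here, GI50 denotes the concentration required for 50% inhibition of growth.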 The source made the active and inactive calls. No stated cut-off is given here; in the data, active = GI50 up to about 1.1 µM and inactive = higher.
Legend:
Test in all cases: NCI anticancer screen, dose series, 48 h
SN12C = test system: SN12C
HCT-116 = test system: HCT-116
HCT-15 = test system: HCT-15
LXFL 529 = test system: LXFL 529
UACC-257 = test system: UACC-257
UO-31 = test system: UO-31
OVCAR-4 = test system: OVCAR-4
HT-29 = test system: HT-29
LOX IMVI = test system: LOX IMVI
ACHN = test system: ACHN
SF-295 = test system: SF-295
CCRF-CEM = test system: CCRF-CEM
TK-10 = test system: TK-10
HL-60 = test system: HL-60
MOLT-4 = test system: MOLT-4
NCI-H522 = test system: NCI-H522
CAKI-1 = test system: CAKI-1
MDA-N = test system: MDA-N
NCI/ADR-RES = test system: NCI/ADR-RES
RXF 393 = test system: RXF 393

SMILES | GI50 (SN12C) | GI50 (HCT-116) | GI50 (HCT-15) | GI50 (LXFL 529) | GI50 (UACC-257) | GI50 (UO-31) | GI50 (OVCAR-4) | GI50 (HT-29) | GI50 (LOX IMVI) | GI50 (ACHN) | GI50 (SF-295) | GI50 (CCRF-CEM) | GI50 (TK-10) | GI50 (HL-60) | GI50 (MOLT-4) | GI50 (NCI-H522) | GI50 (CAKI-1) | GI50 (MDA-N) | GI50 (NCI/ADR-RES) | GI50 (RXF 393)
CC(Oc1ccc(OCC2CCCCC2)cc1)C(N)=O (stereo not given) | > 100 µM (inactive) | > 100 µM (inactive) | > 100 µM | > 100 µM (inactive) | 72.3 µM (inactive) | > 100 µM (inactive) | > 100 µM (inactive) | > 100 µM (inactive) | > 100 µM (inactive) | > 100 µM (inactive) | > 100 µM (inactive) | > 100 µM (inactive) | > 100 µM (inactive) | > 100 µM (inactive) | > 100 µM (inactive) | 87.9 µM (inactive) |  |  |  | 
COc1ccc(/C=C2\N=C(c3ccccc3)OC2=O)c(OCc2ccccc2)c1 | > 100 µM (inactive) | 49.3 µM (inactive) |  | 38.2 µM (inactive) | > 10 µM (inactive) | > 100 µM (inactive) | 22.1 µM (inactive) |  | 39.3 µM (inactive) | > 100 µM (inactive) | 17.9 µM (inactive) | 14.3 µM (inactive) |  | 40.4 µM (inactive) | 14.1 µM (inactive) | 24.6 µM (inactive) | 85.1 µM (inactive) |  |  | 
c1ccc(CSc2nc3ccccc3nc2-c2cccs2)cc1 | > 100 µM (inactive) | > 100 µM (inactive) | > 100 µM | > 100 µM (inactive) | > 100 µM (inactive) | > 100 µM (inactive) | > 100 µM (inactive) | > 100 µM (inactive) |  | > 100 µM (inactive) | > 100 µM (inactive) | 92.9 µM (inactive) | > 100 µM (inactive) | > 100 µM (inactive) | > 100 µM (inactive) | 41.3 µM (inactive) |  |  |  | 
C/C=C1/CN2CCC34c5ccccc5N5C(=O)C(C6CC78c9ccccc9N9C(=O)C=CC(C%10CC7N6C/C%10=C/C)C98)=CC(C1CC23)C54 (stereo not given) | 5.53 µM (inactive) | 5.53 µM (inactive) | 3.75 µM |  | 5.62 µM (inactive) | 2.84 µM (inactive) | 7.01 µM (inactive) | 2.44 µM (inactive) | 10.3 µM (inactive) | 7 µM (inactive) | 9.2 µM (inactive) | 0.501 µM (active) | 7.52 µM (inactive) | 0.183 µM (active) | 1.11 µM (active) | 3.11 µM (inactive) | 8.71 µM (inactive) | 5.47 µM (inactive) | 8.34 µM (inactive) | 1.73 µM (inactive)
Cc1ccc2c(c1)C(=O)C1(C2)Cc2cccc(C)c2C1=O (stereo not given) | > 100 µM (inactive) | > 100 µM (inactive) | > 100 µM |  | > 100 µM (inactive) | 4.41 µM (inactive) | > 100 µM (inactive) | > 100 µM (inactive) | > 100 µM (inactive) | > 100 µM (inactive) | > 100 µM (inactive) | > 100 µM (inactive) | > 100 µM (inactive) | > 100 µM (inactive) | > 100 µM (inactive) | > 100 µM (inactive) | 0.0418 µM (active) | > 100 µM (inactive) | > 100 µM (inactive) | > 100 µM (inactive)
COc1ccc(/N=N\c2c(N)nn3c(SC)c(C#N)c(N)nc23)cc1 | 5.27 µM (inactive) | 7.74 µM (inactive) | 8.61 µM |  | 5.11 µM (inactive) | 12.4 µM (inactive) | 15.1 µM (inactive) | 9.75 µM (inactive) | 1.74 µM (inactive) | 14.6 µM (inactive) | 19.9 µM (inactive) | 2.02 µM (inactive) | 19.1 µM (inactive) | 2.71 µM (inactive) | 2.61 µM (inactive) | 16.5 µM (inactive) | 10.9 µM (inactive) | 13.6 µM (inactive) | 23.4 µM (inactive) | 6.47 µM (inactive)
CCCCCCCCCCCC[C@H](O)[C@H]1CC[C@H]([C@H](O)CCCC[C@H](O)CCCCC[C@@H](O)CC2=C[C@H](C)OC2=O)O1 | 5.83 µM (inactive) | 1.76 µM (inactive) | 5.56 µM |  | 0.407 µM (active) | 1.5 µM (inactive) | 17.6 µM (inactive) | 2.82 µM (inactive) | 1.11 µM (active) | 1.08 µM (active) | 1.63 µM (inactive) | 1.71 µM (inactive) | 1.77 µM (inactive) | 2.15 µM (inactive) | 2.87 µM (inactive) | 5.21 µM (inactive) | 6.24 µM (inactive) | 2.37 µM (inactive) | 1.61 µM (inactive) | 16.6 µM (inactive)
COC(=O)[C@]1(C)CCC[C@]2(C)[C@@H](CCC(=O)C(C)C)[C@]3(C=O)O[C@@H]3C[C@H]21 | 30.6 µM (inactive) | 21.7 µM (inactive) | 26.6 µM |  | 37.9 µM (inactive) | 18.7 µM (inactive) | 24.7 µM (inactive) | 38.9 µM (inactive) | 24.7 µM (inactive) | 27 µM (inactive) | 36.1 µM (inactive) | 32.2 µM (inactive) | 51.8 µM (inactive) | 40.1 µM (inactive) | 29.9 µM (inactive) | 16.8 µM (inactive) | 14.8 µM (inactive) | 23.6 µM (inactive) | 25.7 µM (inactive) | 19 µM (inactive)

— ChEMBL document CHEMBL1201862, “PubChem BioAssay data set” (2004)
